This is an account of results in article PMC10056348, “Photocaged Histone Deacetylase Inhibitors as Prodrugs in Targeted Cancer Therapy” (Pharmaceuticals, 2023).

Data set [1] relates to asexual blood stage and liver stage parasites. Further details: method as in PMID 30664827. The settings on record: cited from earlier work.
The test system of another data set is A2780 cells. The experiment in a line: Annexin V/PI apoptosis assay (flow cytometry). Type of data set: cell-based, human. The note with it: A2780, 0.5 µM, 48 or 72 h. As to the method: A2780 cells (4 × 10^4 cells/mL) were seeded in 6-well plates (Starlab GmbH, Hamburg, Germany) and allowed to attach. First, dilutions (500 µM) in DMSO were prepared from the respective stock solutions in DMSO (10 mM). Predilutions for photolysis experiments were irradiated in clear U-bottom 96-well microplates (Greiner Bio-One, Greiner AG, Kremsmünster, Austria) for 10 min in the UV reactor described above. Subsequently, vehicle control (DMSO) or compounds, at a concentration of 0.5 µM, were added to the cells and incubated for 48 h and 72 h, respectively. The final volume was 3 mL, and the final DMSO concentration was 0.1%. Staining was performed in triplicate in two separate experiments using annexin V and propidium iodide and analyzed by flow cytometry (Guava® easyCyte^TM, Luminex, Austin, TX, USA), according to the manufacturer’s protocol (BioLegend, San Diego, CA, USA).
Results were expressed as mean with standard deviation (SD). Statistical analysis was performed using GraphPad Prism (GraphPad Software, San Diego, CA, USA). Normality of the data was analyzed using the Shapiro–Wilk’s test. Statistical significance was assessed using one-way analysis of variance (ANOVA) with Tukey’s multiple comparison test. Differences were considered statistically significant at * p < 0.05, ** p < 0.01, *** p < 0.001.
(Flow cytometry measures light scatter and fluorescence of single cells or particles in a stream.)

For the next data set, the system named is HepG2 cancer cell line. Further details: method as in PMID 30664827. The note with it: cited from earlier work.
Data set [2] concerns acetyl-histone H3 in MV-3 cells. Nature of the data set: Immunoblot of acetyl-histone H3 (marker of HDAC1-3 inhibition). The class given is cell-based. The settings on record: 24 h, 3.1 µM, after UV irradiation (365 nm, 10 min). As to the method: MV-3 cells were seeded to cell culture flasks and cultured for 48 h. Aliquots of the DMSO stock solution (10 mM) designated for photolysis were irradiated for 10 min with the UV reactor (see Section 4.3). The cells were treated with the stock solutions, processed with or without irradiation, of the indicated concentration or vehicle (DMSO) for 24 h. Cell lysis was performed with Cell Extraction Buffer (10 mM Tris, pH 7.4, 100 mM NaCl, 1 mM EDTA, 1 mM EGTA, 1 mM NaF, 20 mM Na4P2O7, 2 mM Na3VO4, 1% Triton™ ×-100, 10% glycerol, 0.1% SDS, 0.5% deoxycholate; Catalog# FNN0011, Thermo Fisher Scientific Inc., Waltham, MA, USA) and addition of Halt Protease Inhibitor Cocktail (100×) (Catalog# 78429, Life Technologies GmbH Carlsbad, CA, USA) and phenylmethanesulfonyl fluoride (Catalog# 10837091001, Sigma-Aldrich, St. Louis, MO, USA) according to manufacturer instructions. Protein content was determined by Pierce™ BCA Protein Assay Kit (Catalog# 23225, Thermo Fisher Scientific Inc., Waltham, MA, USA) according to manufacturer guidelines. Samples were denatured by Laemmli 2× Concentrate (Catalog# S3401-10VL, Sigma-Aldrich, St. Louis, MO, USA), and Precision Plus Protein Unstained Standard was used as molecular weight marker (Catalog# 1610363, Bio-Rad, Hercules, CA, USA). […]

The nature of data set [3]: Photo-uncaging efficiency (HPLC after irradiation at 365 nm). The note with it: 10 min. Type of data set: physicochemical. As to the method: Photolysis (photo-uncaging) of photocaged HDACi prodrugs was performed at room temperature using a UVP CL-1000 Crosslinker (Analytik Jena GmbH, Jena, Germany) equipped with five UV-A tubes (F8T5/BL368; λmax = 365 nm; Analytik Jena GmbH, Jena, Germany). Hereafter, this entire experimental set-up will be referred to as the “UV reactor”.
For the photo-uncaging efficiency testing, 10 µL of a 1.0 mM DMSO solution of the respective compound was irradiated for 10 min using the UV reactor described above. Subsequently, 90 µL acetonitrile was added, and the samples were analyzed via HPLC. The amount of photo-cleaved HDACi was determined by comparison with a five-point calibration curve of the respective parent inhibitor, using HPLC/UV detection at an appropriate wavelength (area under the curve; area mAu*min).
2. Photouncaging Experiments
Photolysis (photouncaging) of photocaged HDACi prodrugs was performed at room temperature using an UVP CL-1000 Crosslinker (Analytik Jena GmbH, Jena, Germany) equipped with five UV-A tubes (F8T5/BL368; λmax = 365 nm; Analytik Jena GmbH, Jena, Germany). Hereafter, this entire experimental set-up will be referred to as the "UV-reactor".
For the deprotection experiments 10 µL of a 1.0 mM DMSO-solution of the respective compound were irradiated for 10 min using the UV-reactor described above. Subsequently, 90 µL acetonitrile were added and the samples were analyzed via HPLC. The amount of photo-cleaved HDACi was determined by comparison with a five-point calibration curve of the respective parent inhibitor using HPLC/UV detection at an appropriate wavelength (area under the curve; area mAu*min).
Figure S5. Calibration curve of DDK-137 (I).

Regarding `CN(C)c1ccc(C(=O)N(CC(=O)NCc2ccccc2)Cc2ccc(C(=O)NO)cc2)cc1` [I, N-[2-(benzylamino)-2-oxoethyl]-4-(dimethylamino)-N-[4-(hydroxycarbamoyl)-benzyl]-benzamide], the antiplasmodial activity entry in data set [1] is “potent antiplasmodial activity”. Besides, the “early and late apoptosis vs DMSO control” value with A2780 cells (without UV irradiation) was “significant increase in early and late apoptotic cells”. For the same molecule, the “antiproliferative activity against HepG2” value in the data set on HepG2 cancer cell line was “submicromolar antiproliferative activity”.

As for `COc1cc(CONC(=O)c2ccc(CN(CC(=O)NCc3ccccc3)C(=O)c3ccc(N(C)C)cc3)cc2)c([N+](=O)[O-])cc1OC` [pc-I, N-[2-(Benzylamino)-2-oxoethyl]-N-(4-{[(4,5-dimethoxy-2-nitrobenzyl)oxy]carbamoyl}benzyl)-4-(dimethylamino)benzamide], the “early and late apoptosis vs DMSO control” value in the data set on A2780 cells (after light activation) is “increased apoptosis levels which were comparable to compound I”; in the data set on A2780 cells (without UV irradiation), “no significant increase in early and late apoptosis”. Moreover, in data set [2], the “level of acetyl-histone H3” value is on record as “higher amount of acetyl-histone-H3”. For the same molecule, in data set [3] (DMSO, HPLC with calibration curve), the “yield of photo-released parent inhibitor” value was found to be 82%. Moreover, the “concentration of photo-released parent inhibitor after irradiation” value in data set [3] (initial concentration 100 µM) is 81.5 µM.
